Measured values: the supplement of paper PMC10307832

Columns and labels:
Assay in all cases: relative viability (nuclei count vs DMSO), 5 days (fraction); higher = more cells survive
RO-3306 + Trametinib = compound: C1=CC2=C(C=CC(=C2)C=C3C(=O)NC(=NCC4=CC=CS4)S3)N=C1 [RO-3306] + CC(=O)Nc1cccc(-n2c(=O)n(C3CC3)c(=O)c3c(Nc4ccc(I)cc4F)n(C)c(=O)c(C)c32)c1 [Trametinib] (partner 0.02 µM)
How it was run: (§1)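 Lung cancer cell lines in 1536-well plates were dosed by pin tool the day after seeding, either with one drug alone or with a fixed anchor-drug dose plus five library-drug doses (not always all listed) in √10 steps. After 5 days, cells were fixed and their nuclei stained in one step (final 0.05% Triton X-100, 1% formaldehyde, 1 ug/ml Hoechst), then counted on 4× images. Relative viability is the nuclei count in treated wells divided by that in vehicle wells. Values are medians of duplicate plates.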

RO-3306 + Pictilisib = compound: C1=CC2=C(C=CC(=C2)C=C3C(=O)NC(=NCC4=CC=CS4)S3)N=C1 [RO-3306] + CS(=O)(=O)N1CCN(Cc2cc3nc(-c4cccc5[nH]ncc45)nc(N4CCOCC4)c3s2)CC1 [Pictilisib] (partner 1 µM)
How it was run: as §1

[1] = compound: O=S(=O)(c1ccccc1)N(CC(F)(F)F)c1ccc(C(O)(C(F)(F)F)C(F)(F)F)cc1 + Cc1cc(Nc2cc(N3CCN(C)CC3)nc(Sc3ccc(NC(=O)C4CC4)cc3)n2)n[nH]1 [Tozasertib] (partner 0.1 µM)
How it was run: as §1

[2] = compound: O=S(=O)(c1ccccc1)N(CC(F)(F)F)c1ccc(C(O)(C(F)(F)F)C(F)(F)F)cc1 + Nc1nc2[nH]cc(CCc3ccc(C(=O)N[C@@H](CCC(=O)O)C(=O)O)cc3)c2c(=O)[nH]1 [Pemetrexed] (partner 0.2 µM)
How it was run: as §1

Cell Line	relative viability (RO-3306 + Trametinib; first compound 0.01 µM)	relative viability (RO-3306 + Trametinib; first compound 0.03162 µM)	relative viability (RO-3306 + Trametinib; first compound 0.1 µM)	relative viability (RO-3306 + Trametinib; first compound 0.3162 µM)	relative viability (RO-3306 + Trametinib; first compound 1 µM)	relative viability (RO-3306 + Pictilisib; first compound 0.03162 µM)	relative viability (RO-3306 + Pictilisib; first compound 0.1 µM)	relative viability (RO-3306 + Pictilisib; first compound 0.3162 µM)	relative viability (RO-3306 + Pictilisib; first compound 1 µM)	relative viability ([1]; first compound 0.8 µM)	relative viability ([1]; first compound 2.53 µM)	relative viability ([1]; first compound 8 µM)	relative viability ([2]; first compound 0.8 µM)	relative viability ([2]; first compound 2.53 µM)	relative viability ([2]; first compound 8 µM)	relative viability (RO-3306 + Pictilisib; first compound 0.01 µM)
NCI-H1993	0.506	0.546	0.6	0.533	0.439	0.956	0.686	0.743	0.897	0.596	0.535	0.528	0.616	0.533	0.614	–
NCI-H2009	0.283	0.272	0.247	0.273	0.254	0.712	0.806	0.753	0.636	0.749	0.57	0.679	1.01	0.941	0.824	0.96
NCI-H2023	0.554	0.442	0.444	0.509	0.529	0.241	0.225	0.219	0.167	0.335	0.289	0.249	0.274	0.268	0.231	0.168
NCI-H2085	0.509	0.632	0.527	0.613	0.595	0.467	0.467	0.492	0.479	0.809	0.727	0.688	0.751	0.8	0.869	0.388
NCI-H2087	0.176	0.193	0.188	0.234	0.202	0.698	1.01	0.974	0.836	0.255	0.258	0.188	0.459	0.593	0.633	0.988
NCI-H2126	0.555	0.488	0.577	0.584	0.476	0.426	0.506	0.425	0.477	0.934	0.887	0.769	0.82	0.743	0.672	0.413
NCI-H2170	1.18	0.792	0.886	0.96	0.958	0.303	0.305	0.312	0.334	0.784	0.616	0.629	0.256	0.274	0.28	0.292
NCI-H2228	0.541	0.43	0.436	0.62	0.281	0.37	0.363	0.381	0.269	0.265	0.176	0.183	0.373	0.309	0.333	0.456
NCI-H2347	0.283	0.271	0.262	0.264	0.274	0.477	0.642	0.881	0.668	0.628	0.523	0.646	0.47	0.445	0.395	0.715
NCI-H2405	0.637	0.557	0.636	0.63	0.613	0.433	0.496	0.534	0.427	0.889	0.749	0.711	1.17	1.05	1.01	0.369
NCI-H3122	0.241	0.223	0.26	0.237	0.227	0.56	0.624	0.611	0.525	0.419	0.424	0.489	0.209	0.19	0.201	0.602
PC-3 [JPC-3]	0.715	0.697	0.704	0.694	0.65	0.717	0.672	0.769	0.882	0.819	0.838	0.767	–	1.07	0.949	0.725
PC-14	0.827	0.607	0.614	0.78	0.766	0.539	0.648	0.592	0.511	0.559	0.445	0.34	0.135	0.116	0.148	0.892
RERF-LC-KJ	0.914	0.907	0.862	0.881	0.935	0.487	0.591	0.552	0.435	0.5	0.445	0.523	0.477	0.453	0.461	0.563
SK-LU-1	0.463	0.412	0.501	0.506	0.309	0.603	0.651	0.671	0.521	0.285	0.328	0.301	1.05	0.976	1.01	0.539
SK-MES-1	0.519	0.537	0.483	0.491	0.562	0.334	0.353	0.413	0.355	1.11	1.05	0.962	1.12	1	0.824	0.324
SW 1573	0.636	0.428	0.539	0.604	0.573	0.406	0.534	0.534	0.39	0.182	0.17	0.215	0.904	0.76	0.877	0.536
